Several values for one entry are separate records, joined by “and”; a condition that tells them apart may be missing. Equal values may be shown once. Read-outs that look alike come from different tables or passages of the source.
How the values were obtained:
KRAS G12C = KRAS G12C (Homo sapiens, UniProt P01116+P62937, G12C); assay: Disruption of BRAF RBD interaction with Ras (FRET / MOA assay, with Cyclophilin A); format: biochemical
Outline: (§1)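 Compound-driven ternary complex formation between nucleotide-loaded K-Ras and Cyclophilin A was measured as loss of BRAF RBD binding. Compounds (10-point 3-fold series, top 30 μM final) were incubated 3 h at 25 °C, then anti-His Eu-W1024 (10 nM) and anti-GST allophycocyanin (50 nM) added for 1.5 h. IC50 was taken from the TR-FRET ratio decrease versus DMSO.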

KRAS G12D = KRAS G12D (Homo sapiens, UniProt P01116+P62937, G12D); assay: as above; format: biochemical
Chain of KRAS G12D (P01116 1-169 isoform P01116-2 G12D limits assumed): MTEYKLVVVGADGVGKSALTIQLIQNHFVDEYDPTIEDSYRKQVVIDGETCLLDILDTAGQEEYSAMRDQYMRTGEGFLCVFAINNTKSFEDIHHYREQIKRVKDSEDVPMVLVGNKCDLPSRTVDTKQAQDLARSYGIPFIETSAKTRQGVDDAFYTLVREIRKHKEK
Chain of KRAS G12D (P62937 whole entry): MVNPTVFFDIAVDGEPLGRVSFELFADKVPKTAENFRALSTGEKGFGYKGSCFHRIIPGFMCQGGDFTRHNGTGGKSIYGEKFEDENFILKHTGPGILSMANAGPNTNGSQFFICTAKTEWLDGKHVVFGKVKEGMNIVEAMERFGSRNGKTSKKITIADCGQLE
Outline: as §1

NRAS G12C = NRAS G12C (Homo sapiens, UniProt P01111+P62937, G12C); assay: as above; format: biochemical; details: NRAS G12C; read-out: NRAS G12C FRET data IC50
Chain of NRAS G12C (P01111 whole entry G12C): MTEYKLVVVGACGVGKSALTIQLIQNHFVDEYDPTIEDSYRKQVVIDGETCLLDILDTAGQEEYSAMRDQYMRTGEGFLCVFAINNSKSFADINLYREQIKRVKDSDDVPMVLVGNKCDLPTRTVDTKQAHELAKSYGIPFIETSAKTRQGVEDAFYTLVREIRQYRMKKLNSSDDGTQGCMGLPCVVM
Chain of NRAS G12C (P62937 whole entry): as the sequence (P62937 whole entry) above

KRAS G13D = KRAS G13D (Homo sapiens, UniProt P01116+P62937, G13D); assay: as above; format: biochemical
Chain of KRAS G13D (P01116 1-169 isoform P01116-2 G13D limits assumed): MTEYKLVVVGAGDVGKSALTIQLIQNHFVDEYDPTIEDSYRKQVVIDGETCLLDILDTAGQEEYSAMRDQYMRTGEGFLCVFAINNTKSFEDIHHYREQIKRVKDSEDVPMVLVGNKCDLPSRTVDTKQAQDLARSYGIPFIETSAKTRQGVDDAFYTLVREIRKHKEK
Chain of KRAS G13D (P62937 whole entry): as the sequence (P62937 whole entry) above
Outline: as §1

KRAS G12V = KRAS G12V (Homo sapiens, UniProt P01116+P62937, G12V); assay: as above; format: biochemical
Chain of KRAS G12V (P01116 1-169 isoform P01116-2 G12V limits assumed): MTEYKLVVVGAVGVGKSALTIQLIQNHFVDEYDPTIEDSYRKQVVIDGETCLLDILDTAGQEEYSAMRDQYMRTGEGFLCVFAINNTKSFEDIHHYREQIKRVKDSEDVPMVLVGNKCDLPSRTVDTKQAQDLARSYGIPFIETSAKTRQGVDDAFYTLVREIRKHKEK
Chain of KRAS G12V (P62937 whole entry): as the sequence (P62937 whole entry) above
Outline: as §1

KRAS G13C = KRAS G13C (Homo sapiens, UniProt P01116+P62937, G13C); assay: as above; format: biochemical
Chain of KRAS G13C (P01116 1-169 isoform P01116-2 G13C): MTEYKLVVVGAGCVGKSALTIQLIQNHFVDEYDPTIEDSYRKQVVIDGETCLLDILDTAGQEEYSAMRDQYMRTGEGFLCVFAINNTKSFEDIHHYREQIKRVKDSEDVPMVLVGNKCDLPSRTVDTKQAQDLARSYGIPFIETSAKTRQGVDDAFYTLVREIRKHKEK
Chain of KRAS G13C (P62937 whole entry): as the sequence (P62937 whole entry) above
Outline: as §1

KRAS WT = KRAS WT (Homo sapiens, UniProt P01116+P62937); assay: as above; format: biochemical; details: KRAS WT; read-out: KRAS WT FRET data IC50
Chain of KRAS WT (P01116 1-169 isoform P01116-2 limits assumed): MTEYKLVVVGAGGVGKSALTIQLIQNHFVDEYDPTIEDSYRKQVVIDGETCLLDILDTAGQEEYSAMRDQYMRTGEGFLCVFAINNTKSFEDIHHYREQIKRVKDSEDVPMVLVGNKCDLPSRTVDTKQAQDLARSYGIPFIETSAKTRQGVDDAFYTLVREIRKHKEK
Chain of KRAS WT (P62937 whole entry): as the sequence (P62937 whole entry) above
Outline: as §1

KRAS G12S = KRAS G12S (Homo sapiens, UniProt P01116+P62937, G12S); assay: as above; format: biochemical; details: read-out: KRAS G12S FRET data, IC50
Chain of KRAS G12S (P01116 1-169 isoform P01116-2 G12S limits assumed): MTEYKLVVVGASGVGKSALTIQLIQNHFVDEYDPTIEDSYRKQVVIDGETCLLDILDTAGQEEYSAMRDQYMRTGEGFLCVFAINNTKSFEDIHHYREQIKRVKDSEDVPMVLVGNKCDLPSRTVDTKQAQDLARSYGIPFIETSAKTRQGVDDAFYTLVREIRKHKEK
Chain of KRAS G12S (P62937 whole entry): as the sequence (P62937 whole entry) above
Outline: as §1

[1] = tested on: K-Ras G12C (NCI-H358 cells); assay: Potency assay: pERK (AlphaLISA SureFire or In-Cell Western); format: cell-based; details: Homo sapiens, NCI-H358
Outline: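 Cellular pERK decrease measured after 4 h compound exposure (37 °C, 5% CO2) of NCI-H358 cells, 10-point 3-fold series from 10 mM DMSO stock, duplicates. Detection either by In-Cell Western (IR-800CW secondary, DRAQ5 stain) or AlphaLISA SureFire Ultra p-ERK1/2; 4-parameter sigmoidal fit gave IC50.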

[2] = read-out: KRAS G12D FRET data, IC50
[3] = KRAS G12V, read-out: KRAS G12V FRET data IC50
[4] = KRAS G12C, read-out: KRAS G12C FRET data IC50
[5] = KRAS G13D, read-out: KRAS G13D FRET data IC50
[6] = KRAS G13C, read-out: KRAS G13C FRET data IC50
[7] = H358 KRAS G12C, read-out: pERK EC50

Chain of KRAS G12C (P01116 1-169 isoform P01116-2 G12C): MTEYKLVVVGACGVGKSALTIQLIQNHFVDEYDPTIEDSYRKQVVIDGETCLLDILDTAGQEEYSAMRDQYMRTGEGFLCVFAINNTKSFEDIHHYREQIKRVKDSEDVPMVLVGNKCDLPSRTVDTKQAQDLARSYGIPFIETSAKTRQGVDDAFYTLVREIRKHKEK
Chain of KRAS G12C (P62937 whole entry): as the sequence (P62937 whole entry) above

`CCn1c(-c2cccnc2[C@H](C)OC)c2c3cc(ccc31)-c1cc(O)cc(c1)C[C@H](NC(=O)[C@H](C(C)C)N(C)C(=O)[C@H]1CCN(C(=O)OC)C1)C(=O)N1CCC[C@H](N1)C(=O)OCC(C)(C)C2` (atropisomer, axis not shown) [Example A3] was tested, and the IC50 (KRAS G12C; read-out: FRET G12C IC50) was 29 nM, the IC50 (KRAS G12C; read-out: KRAS G12C FRET data, IC50) was 1000 to 10000 nM and 10 to 100 nM and the IC50 (KRAS G12D; read-out: FRET G12D IC50) was 545 nM. The IC50 (KRAS G12D; [2]) was 100 to 1000 nM and > 10000 nM, the IC50 (NRAS G12C) was 1000 to 10000 nM and 10 to 100 nM and the IC50 (KRAS G13D; read-out: FRET G13D IC50) was 160 nM. The IC50 (KRAS G12V; [3]) was 1000 to 10000 nM and 10 to 100 nM, the IC50 (KRAS G12V; read-out: FRET G12V IC50) was 43 nM and the IC50 (KRAS G13C; read-out: FRET G13C IC50) was 99 nM. For the same molecule, the IC50 (KRAS G13C; read-out: KRAS G13C FRET data, IC50) was 1000 to 10000 nM and 10 to 100 nM, the IC50 (KRAS WT) was 1000 to 10000 nM and 10 to 100 nM and the IC50 (KRAS G12S) was 1000 to 10000 nM and 10 to 100 nM. For the same molecule, the EC50 ([1]; read-out: H358 pERK EC50) was 18 nM.
`C=CC(=O)N1CCOC2(CCN(C(=O)N(C)[C@H](C(=O)N[C@H]3Cc4cc(CF)cc(c4)-c4ccc5c(c4)c(c(-c4cccnc4[C@H](C)OC)n5CC(F)(F)F)CC(C)(C)COC(=O)C4CCCN(N4)C3=O)C(C)C)CC2)C1` (stereo partly shown) [Example A605] was tested, and the IC50 (KRAS G12C; [4]) was 100 to 1000 nM, the IC50 (KRAS G12D; [2]) was 100 to 1000 nM and the IC50 (NRAS G12C) was 100 to 1000 nM. It also gave an IC50 (KRAS G13D; [5]) of 100 to 1000 nM, an IC50 (KRAS G12V; [3]) of 100 to 1000 nM and an IC50 (KRAS G13C; [6]) of 10 to 100 nM. It also gave an IC50 (KRAS WT) of 10 to 100 nM, an IC50 (KRAS G12S) of 100 to 1000 nM and an EC50 [1, 7] of less than 5000 nM.
Work on `CO[C@@H](COC1CN(C(=O)C#CC(C)(C)N(C)C)C1)C(=O)N[C@H]1Cc2cccc(c2)-c2ccc3c(c2)c(c(-c2cccnc2[C@H](C)OC)n3CC(F)(F)F)CC(C)(C)COC(=O)[C@@H]2CCCN(N2)C1=O` [Example A556] yielded an IC50 (KRAS G12C; [4]) of less than 10 nM, an IC50 (KRAS G12D; [2]) greater than 10000 nM and an IC50 (NRAS G12C) of less than 10 nM. It also gave an IC50 (KRAS G13D; [5]) greater than 10000 nM, an IC50 (KRAS G12V; [3]) of 1000 to 10000 nM and an IC50 (KRAS G13C; [6]) of 1000 to 10000 nM. It also gave an IC50 (KRAS WT) of 1000 to 10000 nM, an IC50 (KRAS G12S) greater than 10000 nM and an EC50 [1, 7] of less than 5000 nM.
With `C=CC(=O)N1CCO[C@H]2CCN(C(=O)N(C)[C@H](C(=O)N[C@H]3Cc4nc(cs4)-c4ccc5c(c4)c(c(-c4cccnc4[C@H](C)OC)n5CC)CC(C)(C)COC(=O)C4CCCN(N4)C3=O)C(C)C)C[C@@H]21` (stereo partly shown) [Example A609] the IC50 (KRAS G12C; [4]) was less than 10 nM, the IC50 (KRAS G12D; [2]) was 100 to 1000 nM and the IC50 (NRAS G12C) was less than 10 nM. For the same molecule, the IC50 (KRAS G13D; [5]) was 100 to 1000 nM, the IC50 (KRAS G12V; [3]) was 10 to 100 nM and the IC50 (KRAS G13C; [6]) was 10 to 100 nM. It also gave an IC50 (KRAS WT) of 10 to 100 nM, an IC50 (KRAS G12S) of 10 to 100 nM and an EC50 [1, 7] of less than 5000 nM.
